What all share (assay): growth of human tumour cells (NCI), 48 h
In test [1] the test system is ACHN renal.
Test [2] relates to HCT-116 colon.
The subject of test [3] is HCT-15 colon.
Test [4] deals with KM12 colon.
In test [5] the test system is M14 melanoma.
The test system of test [6] is NCI-H23 lung.
Test [7] concerns NCI-H460 lung.
Test [8] deals with RPMI-8226 leukemia.
The test system of test [9] is SNB-19 CNS.
Test [10] concerns UACC-62 melanoma.

Structures are written as SMILES.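 These data come from cells grown in 96-well plates and exposed to compound for 48 hours at five concentrations. TGI is the concentration that stops growth completely.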

Here are results for 12 compounds from PubChem BioAssay (NCI).

On to `Nc1nc(-c2ccccc2)cc(-c2ccc(F)cc2)c1-c1ccc(Cl)cc1`, for which the TGI in test [1], in [2], in test [3], in test [4], in [5] and in test [6] was over 100 µM throughout. For the same compound, the TGI in test [7], in [8], in test [9] and in test [10] was over 100 µM throughout.

Turning to `Cc1cc(S(=O)(=O)Nc2nc(N)n(-c3ccccc3)n2)c(S)cc1Cl`, the TGI in test [1], in test [2], in [3], in [4], in test [5] and in [7] was over 100 µM each time. Also, the TGI in test [8], in test [9] and in test [10] was over 100 µM in each case.

Take `O=c1[nH]/c(=C/c2cccs2)c(=O)[nH]/c1=C/c1ccc(OCc2ccccc2)cn1`: the TGI was over 100 µM in [1]; over 100 µM in test [2]; 28.8 µM in test [3]; 26.3 µM in [4]; 0.0381 µM in test [5]; 1.7 µM in [6]. Moreover, the TGI in test [7] was 3.46 µM; in test [8], over 43.2 µM; in test [9] it was over 46.2 µM; in test [10], 40.3 µM.

`c1ccc(C[P+]2(c3ccccc3)CCCCC2)cc1`: the TGI in test [1], in test [2], in [3], in test [4], in test [5] and in [6] was over 100 µM each time. Also, the TGI in test [7], in [8], in [9] and in [10] was over 100 µM throughout.

Regarding `O=C(O)CC(Cc1ccccc1)C(=O)O` (stereo unspecified), the TGI in test [1], in test [2], in test [3], in [4], in test [5] and in [6] was over 100 µM throughout. In addition, the TGI in test [7], in [8], in test [9] and in test [10] was over 100 µM in each case.

Regarding `CC1(C)OC2C(CO)OC(/N=C(\NC#N)Oc3ccccc3)C2O1` (stereo unspecified), the TGI in [1], in [2], in test [3], in test [4], in test [5] and in test [6] was over 100 µM each time. Besides, the TGI in [7], in test [8], in test [9] and in [10] was over 100 µM each time.

Consider `CS(=O)(=O)c1nc(-c2cc3c(c(S(C)(=O)=O)n2)CCC3)cc2c1CCC2`, for which the TGI in [1], in test [2], in test [3], in test [4], in [5] and in [6] was over 100 µM throughout. Also, the TGI in [7], in test [8], in test [9] and in test [10] was over 100 µM throughout.

As for `COc1cc2[nH]c(=O)[nH]c2c2c(C)c[nH]c12`, the TGI in test [1], in [2], in test [3], in [4], in test [5] and in test [6] was over 100 µM each time. Further, the TGI in test [7], in test [8], in test [9] and in test [10] was over 100 µM in each case.

Regarding `CC12CCC3=C(CSC4=C3CSc3ccccc34)C1=CCCC2=O` (stereo unspecified), the TGI in [1], in [2], in test [3], in test [4], in test [5] and in [6] was over 100 µM each time. Besides, the TGI in test [7], in test [8] and in test [9] was over 100 µM throughout.

With `Cc1cc2nc(N)n[n+]([O-])c2cc1C`, the TGI in test [1], in [2], in test [3], in [4], in test [5] and in test [6] was over 100 µM throughout. Further, the TGI in [8], in [9] and in test [10] was over 100 µM in each case.

Regarding `COc1cc(CNc2nc3cc(C(F)(F)F)ccc3nc2C(=O)O)cc(OC)c1OC`, the TGI was 73.3 µM in test [1]; 29 µM in test [2]; over 100 µM in test [3]; 78.2 µM in [4]; 35.7 µM in test [5]; over 100 µM in [6]. Moreover, the TGI stood at 82 µM in test [7], 56.7 µM in test [9] and 28.9 µM in [10].

As to `CCNc1nc2ccccc2nc1NCC`, the TGI in [1], in [2], in test [3], in [4], in test [5] and in [6] was over 100 µM in each case. Besides, the TGI in [7], in test [8], in test [9] and in test [10] was over 100 µM each time.
